Assay results published in PubChem BioAssay AID2060614 (Molecular Pharmacology Branch, DTP, NCI, 2025).

System: 598228-144-R-J1-PDC complex spheroids, viability
Assay: Anticancer human tumor 598228-144-R-J1-PDC patient-derived serous endometrial adenocarcinoma cell line growth inhibition [CLK]
Details: for IC50: curve of first compound; for viability, T/C: stronger effect = lower value
Summary of the method: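 Patient-derived tumor cells grown as complex spheroids with HUVEC endothelial cells and mesenchymal stem cells, treated with drug combinations. Concentrations descend in half-log steps from near clinical Cmax, or from 10 microM if Cmax unknown.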

[1] = second compound 0.0316 µM, first compound 0.0316 µM
[2] = second compound 0.0316 µM, first compound 0.1 µM
[3] = second compound 0.0316 µM, first compound 0.316 µM
[4] = second compound 0.0316 µM, first compound 1 µM
[5] = second compound 0.0316 µM, first compound 3.16 µM
[6] = second compound 0.0316 µM, first compound 10 µM
[7] = second compound 0.1 µM, first compound 0.0316 µM
[8] = second compound 0.1 µM, first compound 0.1 µM
[9] = second compound 0.1 µM, first compound 0.316 µM
[10] = second compound 0.1 µM, first compound 1 µM
[11] = second compound 0.1 µM, first compound 3.16 µM
[12] = second compound 0.1 µM, first compound 10 µM
[13] = second compound 0.316 µM, first compound 0.0316 µM
[14] = second compound 0.316 µM, first compound 0.1 µM
[15] = second compound 0.316 µM, first compound 0.316 µM
[16] = second compound 0.316 µM, first compound 1 µM
[17] = second compound 0.316 µM, first compound 3.16 µM
[18] = second compound 0.316 µM, first compound 10 µM
[19] = second compound 1 µM, first compound 0.0316 µM
[20] = second compound 1 µM, first compound 0.1 µM
[21] = second compound 1 µM, first compound 0.316 µM
[22] = second compound 1 µM, first compound 1 µM
[23] = second compound 1 µM, first compound 3.16 µM
[24] = second compound 1 µM, first compound 10 µM
[25] = second compound 3.16 µM, first compound 0.0316 µM
[26] = second compound 3.16 µM, first compound 0.1 µM
[27] = second compound 3.16 µM, first compound 0.316 µM
[28] = second compound 3.16 µM, first compound 1 µM
[29] = second compound 3.16 µM, first compound 3.16 µM
[30] = second compound 3.16 µM, first compound 10 µM
[31] = second compound 10 µM, first compound 0.0316 µM
[32] = second compound 10 µM, first compound 0.1 µM
[33] = second compound 10 µM, first compound 0.316 µM
[34] = second compound 10 µM, first compound 1 µM
[35] = second compound 10 µM, first compound 3.16 µM
[36] = second compound 10 µM, first compound 10 µM
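Further: spheroids exposed to compounds for seven days before readout.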
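Wherever viability, T/C is given: 100% = DMSO vehicle control wells.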

For `C=C(F)C(=O)N1CCN(c2nc(OCC3CCCN3C)nc3c2CCN(c2cccc4cccc(Cl)c24)C3)CC1CC#N` (centres undefined) + CNC(=O)c1ccc(Nc2nc(OC3CCCC3)c3c(-c4ccc5nc(C)oc5c4)c[nH]c3n2)c(OC)c1, the IC50 (second compound 0.0316 µM) was 5.08 µM, the IC50 (second compound 0.1 µM) was 5.07 µM and the IC50 (second compound 0.316 µM) was 5.08 µM. The IC50 (second compound 1 µM) was 4.6 µM, the IC50 (second compound 3.16 µM) was 4.83 µM and the IC50 (second compound 10 µM) was 4.05 µM. The viability, T/C [1] was 108%, the viability, T/C [2] was 115% and the viability, T/C [3] was 98.6%. For the same molecule, the viability, T/C [4] was 99.7%, the viability, T/C [5] was 85.7% and the viability, T/C [6] was 1.18%. The viability, T/C [7] was 104%, the viability, T/C [8] was 101% and the viability, T/C [9] was 96.2%. The viability, T/C [10] was 97.7%, the viability, T/C [11] was 81.5% and the viability, T/C [12] was 4.78%. The viability, T/C [13] was 102%, the viability, T/C [14] was 98.6% and the viability, T/C [15] was 89.3%. It also gave a viability, T/C [16] of 107%, a viability, T/C [17] of 83.9% and a viability, T/C [18] of 1.64%. It also gave a viability, T/C [19] of 100%, a viability, T/C [20] of 89.7% and a viability, T/C [21] of 89.3%. The viability, T/C [22] was 92.4%, the viability, T/C [23] was 72.9% and the viability, T/C [24] was 2.52%. The viability, T/C [25] was 85.3%, the viability, T/C [26] was 90.9% and the viability, T/C [27] was 92.9%. It also gave a viability, T/C [28] of 91.1%, a viability, T/C [29] of 77.3% and a viability, T/C [30] of 3.14%. The viability, T/C [31] was 86.3%, the viability, T/C [32] was 82.7% and the viability, T/C [33] was 83.4%. For the same molecule, the viability, T/C [34] was 80.8%, the viability, T/C [35] was 62.8% and the viability, T/C [36] was 3.36%.

Molecule `O=c1[nH]cc(F)c(=O)[nH]1` + CNC(=O)c1ccc(Nc2nc(OC3CCCC3)c3c(-c4ccc5nc(C)oc5c4)c[nH]c3n2)c(OC)c1 has an IC50 (second compound 0.0316 µM) of over 10 µM, an IC50 (second compound 0.1 µM) of over 10 µM and an IC50 (second compound 0.316 µM) of over 10 µM. It also gave an IC50 (second compound 1 µM) of over 10 µM, an IC50 (second compound 3.16 µM) of over 10 µM and an IC50 (second compound 10 µM) of over 10 µM. For the same molecule, the viability, T/C [1] was 99.7%, the viability, T/C [2] was 113% and the viability, T/C [3] was 107%. For the same molecule, the viability, T/C [4] was 103%, the viability, T/C [5] was 99.9% and the viability, T/C [6] was 86.5%. The viability, T/C [7] was 116%, the viability, T/C [8] was 111% and the viability, T/C [9] was 128%. The viability, T/C [10] was 115%, the viability, T/C [11] was 101% and the viability, T/C [12] was 76.6%. The viability, T/C [13] was 108%, the viability, T/C [14] was 106% and the viability, T/C [15] was 110%. It also gave a viability, T/C [16] of 112%, a viability, T/C [17] of 96.2% and a viability, T/C [18] of 90%. It also gave a viability, T/C [19] of 102%, a viability, T/C [20] of 99.7% and a viability, T/C [21] of 94.5%. It also gave a viability, T/C [22] of 101%, a viability, T/C [23] of 93.4% and a viability, T/C [24] of 83.6%. It also gave a viability, T/C [25] of 95%, a viability, T/C [26] of 97% and a viability, T/C [27] of 97.1%. The viability, T/C [28] was 83.1%, the viability, T/C [29] was 94.5% and the viability, T/C [30] was 77.3%. It also gave a viability, T/C [31] of 87.8%, a viability, T/C [32] of 86.6% and a viability, T/C [33] of 89.8%. The viability, T/C [34] was 88.5%, the viability, T/C [35] was 77.8% and the viability, T/C [36] was 65.2%.
